Measurements reported in patent US20240293337A1, “USE OF DOXERCALCIFEROL TO TREAT AND/OR PREVENT UTERINE FIBROIDS OR POLYCYSTIC OVARY SYNDROME” (priority 2023, published 2024).

Assays:
SW872 cells [1] = assay: SW872 immortalized adipocyte model, cell morphology and cell number after 24 h treatment; assay type: cell-based, human; conditions: 100 nM
Experimental: Human liposarcoma SW872 are used as an in vitro cell culture model of adipocytes to assess adipocyte proliferation. SW872 cells are purchased from (ATCC). These cells are isolated from a surgical specimen of a […] removed from a donor. The cells are cultured per the recommended guidelines. The cells are subcultured at a ratio of 1:4, resulting in a cell density of approximately 1×10^6 in T75 flasks. SW872 cells are subcultured in T75 flasks for 24 hours. Cells are then treated for 24 hours with serum free basal media as a control or doxercalciferol at 1 nM, 10 nM, or 100 nM diluted in basal media (serum-free). After the incubation period, cells are imaged and analyzed for morphology and cell count. Cells are then collected for analysis of adipogenesis-related gene expression and cell culture media are collected for analysis of obesity related cytokines.

SW872 cells [2] = assay: Obesity related cytokine antibody array of SW872 secretomes; assay type: cell-based, human; conditions: SW872 secretome, 10 nM, 24 hours
Experimental: SW872 cells are subcultured in T75 flasks for 24 hours. Cells are then treated for 24 hours with serum free basal media as a control or doxercalciferol at 1 nM, 10 nM, or 100 nM diluted in basal media (serum-free). After the incubation period, cells are imaged and analyzed for morphology and cell count. Cells are then collected for analysis of adipogenesis-related gene expression and cell culture media are collected for analysis of obesity related cytokines. Cell culture media are collected from SW872 cells after 24 hours of 10 nM doxercalciferol treatment. The media is analyzed for obesity related cytokines using a membrane-based antibody array (Ray Biotech, GA, USA) per the manufacturer's protocol, and then quantified using a multimode microplate reader system, Varioskan LUX Multimode Microplate Reader (Thermo Fisher).

H295R cells = assay: Androgen producing gene expression in H295R cells (qPCR); assay type: cell-based, human; conditions: 24 hours
Experimental: H295R cells are subcultured in T75 flasks for 24 hours. Cells are then treated for 24 hours with serum free basal media as a control or doxercalciferol at 1 nM, 10 nM, or 100 nM diluted in basal media (serum-free) at a 1:1 ratio. After the incubation period, cells are imaged and analyzed for morphology and cell count. Cells are then collected for analysis of steroidogenesis-related gene expression. Cell culture media are collected and used for testosterone quantification using ELISA based Testosterone Parameter Assay Kit (R&D system) per the manufacturer's protocol. The testosterone level is quantified using a multimode microplate reader system, Varioskan LUX Multimode Microplate Reader (Thermo Fisher).
RNA is extracted from H295R cells treated with doxercalciferol. RNA extraction is done using TRIzol (Invitrogen, USA) according to the manufacturer's instructions. The concentration and purity of the extracted RNA are checked using a NanoDrop spectrometer (Thermo Scientific, MA, USA). For qPCR of steroidogenesis related genes in H295R cells 1 μg of total RNA is reverse transcribed using RNA to cDNA EcoDry™ Premix (Double Primed) (Takara Bio USA Inc., CA, USA). The reaction mixture is incubated for 1 hour at 42° C.; incubation is stopped at 70° C. for 10 min. qPCR is performed using the CFX96 PCR instrument and SYBR Green Supermix (Bio-Rad, Hercules, CA, USA) with specific primers (RT^2 Profiler PCR Array for Human Adipogenesis, PAHS-049ZA, QIAGEN) to the target genes in a 20 μL final reaction volume. The delta-delta threshold cycle (ΔΔCt) method is used to calculate the fold change expression in mRNA level in the samples.

[3] = Body weight in letrozole induced PCOS mouse model; assay type: in vivo, C57BL/6 mice; conditions: 300 ng/kg i.p. 3 times per week for 6 weeks
Experimental: 2.5-week-old female C57BL/6 mice (Charles River, MA, USA) are housed in a vivarium for 1 week under specific pathogen-free conditions. The animal experiment protocol for this study is approved, and all animal experiments are performed in compliance with policies and guidelines for use of laboratory animals. At 3.5 weeks of age, mice (n=11/group) are subcutaneously implanted with a placebo or 5 mg letrozole (LTZ) pellet (Innovative Research of America, Sarasota, FL, USA), which provides a constant release of LTZ (50 μg/day). Body weight is monitored weekly before and post-implantation. Body weight and insulin resistance (measured by glucose tolerance test, GTT) are used to monitor development of PCOS characteristics. Five weeks after placebo or LTZ pellet implantation, mice undergo intraperitoneal injection of doxercalciferol (300 ng/kg) or saline 3 times per week for 6 weeks. Six weeks after doxercalciferol treatment, the mice are anesthetized and ovary, uterus, gonadal white fat, kidney, and liver tissue are collected. Each of these tissues are fixed in 4% paraformaldehyde for further histological analysis.

[4] = system: letrozole induced polycystic ovary syndrome (PCOS) mouse models; assay: Breeding experiments in PCOS mice; assay type: in vivo, C57BL/6 mice
Experimental: Five weeks after placebo or LTZ pellet implantation, mice undergo intraperitoneal injection of doxercalciferol (300 ng/kg) or saline 3 times per week for 6 weeks. Six weeks after doxercalciferol treatment, the mice are anesthetized and ovary, uterus, gonadal white fat, kidney, and liver tissue are collected. Each of these tissues are fixed in 4% paraformaldehyde for further histological analysis.
After doxercalciferol treatment, 6 mice per group from the PCOS experiments are randomly selected for the breeding experiment. One male C57BL/6 breeder mouse is used for every two female mice. The male and female mice are caged together for 10 days. Mating is determined by the presence of sperm plug in the vagina. The pregnancy rate, required time for pregnancy, average number of pups, total live and dead pups, and mouse pup weight and growth rate at birth and days 5 and 10 postpartum are measured.

[5] = system: letrozole induced polycystic ovary syndrome (PCOS) mouse models; assay: Histology (H&E) of PCOS mouse tissues; assay type: in vivo, C57BL/6 mice; conditions: after five weeks of treatment
Experimental: […] […] Each of these tissues are fixed in 4% paraformaldehyde for further histological analysis. Ovary, uterus, gonadal white fat, kidney, and liver tissue are collected and fixed in 4% paraformaldehyde. Tissue sections are stained with hematoxylin-eosin (H&E). Histological analyses are performed using Asperio ImageScope (Leica Biosystem, Wetzlar, Germany).

[6] = Serum chemistry in PCOS mice; assay type: in vivo, C57BL/6 mice; conditions: after five weeks of treatment, most of the serum levels
[7] = PCOS mice, 300 ng/kg i.p. 3 times per week for 6 weeks

What does the source list for C=C1/C(=C\C=C2/CCC[C@]3(C)[C@@H]([C@H](C)/C=C/[C@H](C)C(C)C)CC[C@@H]23)C[C@@H](O)C[C@@H]1O [doxercalciferol]?
cell morphology (SW872 cells [1]): most cells being dead; cell number (SW872 cells [1]; vs control): significant reduction in cells; CCL5 cytokine production (SW872 cells [2]): significantly downregulates; CCL18 cytokine production (SW872 cells [2]): significantly downregulates; CXCL10 cytokine production (SW872 cells [2]): significantly downregulates; MIF cytokine production (SW872 cells [2]): significantly downregulates; TIMP-2 cytokine production (SW872 cells [2]): significantly downregulates; TNF RII cytokine production (SW872 cells [2]): significantly downregulates; TNF alpha cytokine production (SW872 cells [2]): significantly downregulates; CYP11A1 gene expression (H295R cells; 1 nM): not significantly changed; CYP17A1 gene expression (H295R cells; 1 nM): significantly increased; CYP11A1 gene expression (H295R cells; 10 nM): significantly increased; CYP17A1 gene expression (H295R cells; 10 nM): not significantly changed; CYP11A1 gene expression (H295R cells; 100 nM): significantly decreased; CYP17A1 gene expression (H295R cells; 100 nM): significantly decreased; mouse body weight after treatment, vs control mice [3]: no significant weight difference; mouse body weight after treatment, vs untreated PCOS mice [3]: PCOS mice weigh significantly more than both control and doxercalciferol treated PCOS mice; mouse body weight during treatment ([3]; PCOS mice): lowers PCOS mouse weight; average number of live pups, vs control mice [4, 7]: no significant difference; average number of live pups, vs untreated PCOS [4, 7]: increased the average number of live pups; required time for pregnancy after introduction to a potential mate [4, 7]: about 2 weeks; pregnancy rate ([4]; PCOS mice, 300 ng/kg i.p. 3 times per week for 6 weeks (PCOS 20%, control 83.3%)): 50%; total number of live pups, vs untreated PCOS ([4]; PCOS mice, 300 ng/kg i.p. 3 times per week for 6 weeks, not to the levels of control mice): increases the total number of live pups; average weight of pups, vs control mice ([4]; pups of treated PCOS mice, 5 days postpartum): significantly lower; average weight of pups, vs control and PCOS ([4]; pups of treated PCOS mice, 10 days postpartum): no significant difference; average weight of pups, vs control mice ([4]; pups of treated PCOS mice, at birth): significantly lower; growth of pups, vs control and PCOS ([4]; pups of treated PCOS mice, at birth, 5 days and 10 days postpartum): no significant difference; kidney and liver histology ([5]; PCOS mice): no significant evidence of tissue damage or inflammation; ovary histology (follicles) ([5]; PCOS mice, untreated PCOS mice have numerous cysts): good numbers of follicles; gonad white fat histology, adipocyte size vs untreated PCOS mice [5]: reduced adipocyte size; uterus histology, vs untreated PCOS mice [5]: improved uterine epithelial cell organization; serum levels vs reference range of C57BL/6 mice [6]: overlap with the reference range
